{"source": "ChEMBL document CHEMBL3352127", "about": "“Synthesis of oleanolic acid derivatives: In vitro, in vivo and in silico studies for PTP-1B inhibition” (Eur J Med Chem, 2014)", "key": {"[1]": {"target": "T1, Low molecular weight phosphotyrosine protein phosphatase (Homo sapiens, UniProt P24666)", "T1 sequence (P24666 whole entry)": "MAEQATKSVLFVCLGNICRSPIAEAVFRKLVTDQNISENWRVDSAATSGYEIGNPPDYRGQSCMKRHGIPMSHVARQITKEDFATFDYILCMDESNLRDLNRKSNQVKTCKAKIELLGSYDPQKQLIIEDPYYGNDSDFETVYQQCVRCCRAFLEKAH", "test": "Inhibition of human LMW-PTP IF1 using p-nitrophenylphosphate as substrate by spectrophotometry"}, "[2]": {"target": "T2, Tyrosine-protein phosphatase non-receptor type 1 (Homo sapiens, UniProt P18031)", "T2 sequence (P18031 whole entry)": "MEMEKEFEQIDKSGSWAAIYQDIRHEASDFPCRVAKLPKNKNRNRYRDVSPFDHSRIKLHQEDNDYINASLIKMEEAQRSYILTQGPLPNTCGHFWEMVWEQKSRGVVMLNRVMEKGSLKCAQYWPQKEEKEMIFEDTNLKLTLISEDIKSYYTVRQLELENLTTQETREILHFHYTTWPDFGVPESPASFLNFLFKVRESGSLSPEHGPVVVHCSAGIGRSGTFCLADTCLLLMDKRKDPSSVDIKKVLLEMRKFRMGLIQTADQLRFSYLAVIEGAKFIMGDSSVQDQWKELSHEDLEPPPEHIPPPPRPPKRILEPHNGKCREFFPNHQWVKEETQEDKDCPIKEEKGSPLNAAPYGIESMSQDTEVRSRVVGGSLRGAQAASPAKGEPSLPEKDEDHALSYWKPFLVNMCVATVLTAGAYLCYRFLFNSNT", "test": "Inhibition of purified human GST-tagged PTP-1B using p-nitrophenylphosphate as substrate by spectrophotometry"}, "[3]": {"target": "T3, Tyrosine-protein phosphatase non-receptor type 2 (Homo sapiens, UniProt P17706)", "T3 sequence (P17706 whole entry)": "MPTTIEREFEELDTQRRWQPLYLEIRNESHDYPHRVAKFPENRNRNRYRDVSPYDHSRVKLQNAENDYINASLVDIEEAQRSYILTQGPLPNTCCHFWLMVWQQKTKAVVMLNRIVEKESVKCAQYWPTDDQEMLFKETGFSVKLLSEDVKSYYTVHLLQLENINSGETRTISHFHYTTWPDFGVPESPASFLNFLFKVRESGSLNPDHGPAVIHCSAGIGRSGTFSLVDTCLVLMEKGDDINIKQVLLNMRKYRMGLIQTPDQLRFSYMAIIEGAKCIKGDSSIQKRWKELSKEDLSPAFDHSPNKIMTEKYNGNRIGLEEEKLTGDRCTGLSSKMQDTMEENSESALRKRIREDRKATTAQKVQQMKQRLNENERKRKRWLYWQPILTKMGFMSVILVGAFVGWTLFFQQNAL", "test": "Inhibition of TC-PTP (unknown origin) using p-nitrophenylphosphate as substrate by spectrophotometry"}, "[4]": {"target": "T1, Low molecular weight phosphotyrosine protein phosphatase", "test": "Inhibition of human LMW-PTP IF2 using p-nitrophenylphosphate as substrate by spectrophotometry"}, "Rattus norvegicus [5]": {"system": "Rattus norvegicus", "test": "Antidiabetic activity in NIDDM Wistar rat model assessed as reduction blood glucose level at 50 mg/kg, po measured after 1 hr post dose by glucometry", "assay_type": "functional, organism-based", "design": "dose 50 mg/kg"}, "Rattus norvegicus [6]": {"system": "Rattus norvegicus", "test": "Antidiabetic activity in NIDDM Wistar rat model assessed as reduction blood glucose level at 50 mg/kg, po measured after 3 hrs post dose by glucometry", "assay_type": "functional", "design": "scale not given: the % may be the effect or the level left"}, "[7]": {"target": "T2, Tyrosine-protein phosphatase non-receptor type 1", "test": "Non-competitive inhibition of purified human GST-tagged PTP-1B using p-nitrophenylphosphate as substrate by double-reciprocal plot method"}, "[8]": {"target": "T2, Tyrosine-protein phosphatase non-receptor type 1", "test": "Mixed-type inhibition of purified human GST-tagged PTP-1B using p-nitrophenylphosphate as substrate by double-reciprocal plot method"}}, "note": "Activity calls are given as the source filed them. No cut-off for these calls is given here.", "data": [{"smiles": "CCO[C@H]1CC[C@]2(C)[C@H]3CC=C4[C@@H]5CC(C)(C)CC[C@]5(C(=O)O)CC[C@@]4(C)[C@]3(C)CC[C@H]2C1(C)C", "values": [{"measurement": "IC50", "setting": "[1]", "value": 16.4, "unit": "µM"}, {"measurement": "IC50", "setting": "[2]", "value": 5.3, "unit": "µM"}, {"measurement": "IC50", "setting": "[3]", "value": 26, "unit": "µM"}, {"measurement": "IC50", "setting": "[4]", "value": 47.4, "unit": "µM"}, {"measurement": "Activity", "setting": "Rattus norvegicus [5]", "value": "inactive"}, {"measurement": "Activity", "setting": "Rattus norvegicus [6]", "value": ">20", "unit": "%"}, {"measurement": "Ki", "setting": "[7]", "value": 4.8, "unit": "µM"}]}, {"smiles": "CCCO[C@H]1CC[C@]2(C)[C@H]3CC=C4[C@@H]5CC(C)(C)CC[C@]5(C(=O)O)CC[C@@]4(C)[C@]3(C)CC[C@H]2C1(C)C", "values": [{"measurement": "IC50", "setting": "[2]", "value": 36.5, "unit": "µM"}]}, {"smiles": "C/C=C/C(=O)O[C@H]1CC[C@]2(C)[C@H]3CC=C4[C@@H]5CC(C)(C)CC[C@]5(C(=O)O)CC[C@@]4(C)[C@]3(C)CC[C@H]2C1(C)C", "values": [{"measurement": "IC50", "setting": "[2]", "value": 17.8, "unit": "µM"}]}, {"smiles": "CO[C@H]1CC[C@]2(C)[C@H]3CC=C4[C@@H]5CC(C)(C)CC[C@]5(C(=O)O)CC[C@@]4(C)[C@]3(C)CC[C@H]2C1(C)C", "values": [{"measurement": "IC50", "setting": "[2]", "value": 8.6, "unit": "µM"}]}, {"smiles": "CC1(C)CC[C@]2(C(=O)O)CC[C@]3(C)C(=CC[C@@H]4[C@@]5(C)CC[C@H](OC(=O)/C=C/c6ccccc6)C(C)(C)[C@@H]5CC[C@]43C)[C@@H]2C1", "values": [{"measurement": "IC50", "setting": "[1]", "value": 6.9, "unit": "µM"}, {"measurement": "IC50", "setting": "[2]", "value": 6.1, "unit": "µM"}, {"measurement": "IC50", "setting": "[3]", "value": 11.8, "unit": "µM"}, {"measurement": "IC50", "setting": "[4]", "value": 12.3, "unit": "µM"}, {"measurement": "Activity", "setting": "Rattus norvegicus [5]", "value": "Active"}, {"measurement": "Activity", "setting": "Rattus norvegicus [6]", "value": "Active"}, {"measurement": "Ki", "setting": "[8]", "value": 2.1, "unit": "µM"}]}, {"smiles": "CC(=O)O[C@H]1CC[C@]2(C)[C@H]3CC=C4[C@@H]5CC(C)(C)CC[C@]5(C(=O)O)CC[C@@]4(C)[C@]3(C)CC[C@H]2C1(C)C", "note": "[ACETYL OLEANOLIC ACID]", "values": [{"measurement": "IC50", "setting": "[2]", "value": 21.5, "unit": "µM"}]}, {"smiles": "CC1(C)CC[C@]2(C(=O)O)CC[C@]3(C)C(=CC[C@@H]4[C@@]5(C)CC[C@H](OC(=O)c6ccccc6)C(C)(C)[C@@H]5CC[C@]43C)[C@@H]2C1", "values": [{"measurement": "IC50", "setting": "[2]", "value": 16.2, "unit": "µM"}]}]}
